In the supplement of paper PMC11208160:

Assay: recombinant UMI read abundance after kanamycin selection (control-corrected) (log10(CPM+1)); higher = more efficient recombination; extreme values may be limits of the assay; sequences stand for … in AGTGCAGAGAAAATCGGCCAGTTTTCTCTGCCTGCAGTCCGCATGCCGTGGGACCCCTTGGGTTCTAACCTGTTGCCTAGATTTATGCAGCGGACTGCCTTTCTCCCAAAGTGATAAACCGG…AGGTTGGTTTCACT; site = the 11-nt donor
Procedure, shortened: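 Reported values are log10(CPM+1) from a pooled Escherichia coli screen of donor and donor-binding-loop pairs for the IS621 bridge recombinase. Selection used IPTG (0.07 mM) plus kanamycin, against unselected plating, each in two replicates. Recombinant UMIs were amplified across the donor–target junction, sequenced, converted to CPM, averaged over replicates and scaled by control-derived factors.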
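Also: IS621 bridge recombinase in Escherichia coli cells against a fixed T5 target plasmid.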

Sequence	recombinant UMI read abundance (log10)
GCGCCTACATGGACCGGTTTTCCCGGTAATCCGTATTTGTT (site GCGCCTACTAA)	0.013
GCGCGAGCATGGACCGGTTTTCCCGGTAATCCGTATTTGGG (site GCGCGAGCTCC)	0.163
GCGCTCACATGGACCGGTTTTCCCGGTAATCCGTATTTGAT (site GAGCTCACTAT)	0.12
GCGCTCACATGGACCGGTTTTCCCGGTAATCCGTATTTGAT (site GCGCTCACTAT)	2.21
GCGCTCACATGGACCGGTTTTCCCGGTAATCCGTATTTGAT (site GGGCTCACTAT)	0.00525
GCGCTCACATGGACCGGTTTTCCCGGTAATCCGTATTTGAT (site GTGCTCACTAT)	0.28
GCGGAAGCATGGACCGGTTTTCCCGGTAATCCGTATTTGGT (site GCGGAAGCTAC)	1.72
GCGGATGCATGGACCGGTTTTCCCGGTAATCCGTATTTGAA (site GCGGATGCTTT)	2.38
GCGGCACCATGGACCGGTTTTCCCGGTAATCCGTATTTGCA (site GAGGCACCTTG)	0.00511
GCGGCACCATGGACCGGTTTTCCCGGTAATCCGTATTTGCA (site GCGGCACCTTG)	0
GCGGCACCATGGACCGGTTTTCCCGGTAATCCGTATTTGCA (site GGGGCACCTTG)	0.008
GCGGCACCATGGACCGGTTTTCCCGGTAATCCGTATTTGCA (site GTGGCACCTTG)	0
GCGGCTACATGGACCGGTTTTCCCGGTAATCCGTATTTGTC (site GCGGCTACTGA)	2.67
GCGGCTTCATGGACCGGTTTTCCCGGTAATCCGTATTTGTC (site GCGGCTTCTGA)	1.81
GCGGGCACATGGACCGGTTTTCCCGGTAATCCGTATTTGTG (site GCGGGCACTCA)	0.836
GCGGTGCCATGGACCGGTTTTCCCGGTAATCCGTATTTGGC (site GCGGTGCCTGC)	0

Sequence	recombinant UMI read abundance (log10)
GCGGTGTCATGGACCGGTTTTCCCGGTAATCCGTATTTGAA (site GCGGTGTCTTT)	2.41
GCGTATTCATGGACCGGTTTTCCCGGTAATCCGTATTTGCC (site GCGTATTCTGG)	2.14
GCGTATTCATGGACCGGTTTTCCCGGTAATCCGTATTTGTG (site GCGTATTCTCA)	2.49
GCGTCGGCATGGACCGGTTTTCCCGGTAATCCGTATTTGGA (site GCGTCGGCTTC)	0.519
GCGTGCCCATGGACCGGTTTTCCCGGTAATCCGTATTTGAT (site GCATGCCCTAT)	0.417
GCGTGCCCATGGACCGGTTTTCCCGGTAATCCGTATTTGAT (site GCCTGCCCTAT)	0.0179
GCGTGCCCATGGACCGGTTTTCCCGGTAATCCGTATTTGAT (site GCGTGCCCTAT)	0.221
GCGTGCCCATGGACCGGTTTTCCCGGTAATCCGTATTTGAT (site GCTTGCCCTAT)	0.0133
GCGTTCTCATGGACCGGTTTTCCCGGTAATCCGTATTTGAA (site GCGTTCTCTTT)	2.47
GCTACCTCATGGACCGGTTTTCCCGGTAATCCGTATTTGGC (site GCTACCTCTGC)	2.47
GCTACTGCATGGACCGGTTTTCCCGGTAATCCGTATTTGCA (site GCTACTGCTAG)	0
GCTACTGCATGGACCGGTTTTCCCGGTAATCCGTATTTGCA (site GCTACTGCTCG)	0.00835
GCTACTGCATGGACCGGTTTTCCCGGTAATCCGTATTTGCA (site GCTACTGCTGG)	0
GCTACTGCATGGACCGGTTTTCCCGGTAATCCGTATTTGCA (site GCTACTGCTTG)	2.78
GCTACTGCATGGACCGGTTTTCCCGGTAATCCGTATTTGCG (site GCTACTGCTAG)	0.345
GCTACTGCATGGACCGGTTTTCCCGGTAATCCGTATTTGCG (site GCTACTGCTCG)	1.27
